The record followed here is ChEMBL document CHEMBL1201862, “PubChem BioAssay data set” (2004).

Structures are written as SMILES. Calls of active or inactive are those of the source. Bounds are passed on as bounds.

Assay [1] is described as follows: half-maximal inhibitory concentration for glucagon-like peptide-1 release, STC-1 cell line, dose-response (AID 1117345). The assay is classed as functional, cell-based.
A short description of assay [2]: Glucagon-like peptide 1 release potency, NCI-H716 cell line, dose-response, half-maximal inhibitory concentration (AID 1117344). The assay is classed as functional, cell-based.
In assay [3] the target is Ubiquitin carboxyl-terminal hydrolase BAP1 (Homo sapiens, UniProt Q92560). The experiment in a line: BAP1 deubiquitinase inhibitors, dose response, biochemical (AID 714). The assay is classed as functional.
Ubiquitin carboxyl-terminal hydrolase BAP1, sequence (Q92560 whole entry): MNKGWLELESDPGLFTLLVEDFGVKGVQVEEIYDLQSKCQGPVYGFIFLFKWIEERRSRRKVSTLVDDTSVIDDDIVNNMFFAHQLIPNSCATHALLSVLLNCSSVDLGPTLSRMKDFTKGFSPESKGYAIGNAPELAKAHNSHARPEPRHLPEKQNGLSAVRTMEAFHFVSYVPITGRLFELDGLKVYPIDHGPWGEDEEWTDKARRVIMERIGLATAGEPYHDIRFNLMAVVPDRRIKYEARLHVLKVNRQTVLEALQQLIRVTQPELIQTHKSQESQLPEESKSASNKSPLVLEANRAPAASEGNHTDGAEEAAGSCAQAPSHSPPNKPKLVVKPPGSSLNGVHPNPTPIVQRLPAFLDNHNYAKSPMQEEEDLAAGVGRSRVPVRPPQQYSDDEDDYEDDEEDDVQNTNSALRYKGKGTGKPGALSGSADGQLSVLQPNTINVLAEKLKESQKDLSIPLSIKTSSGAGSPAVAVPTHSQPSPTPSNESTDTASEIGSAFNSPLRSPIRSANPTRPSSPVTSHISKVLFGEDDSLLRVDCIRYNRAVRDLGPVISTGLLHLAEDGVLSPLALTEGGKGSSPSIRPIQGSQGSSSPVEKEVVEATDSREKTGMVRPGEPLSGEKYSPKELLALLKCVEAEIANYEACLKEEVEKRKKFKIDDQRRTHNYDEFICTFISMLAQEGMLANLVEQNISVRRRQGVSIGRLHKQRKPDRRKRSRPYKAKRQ
In assay [4] the target is T1, Estrogen receptor beta (Homo sapiens, UniProt Q92731).
T1 sequence (Q92731 whole entry): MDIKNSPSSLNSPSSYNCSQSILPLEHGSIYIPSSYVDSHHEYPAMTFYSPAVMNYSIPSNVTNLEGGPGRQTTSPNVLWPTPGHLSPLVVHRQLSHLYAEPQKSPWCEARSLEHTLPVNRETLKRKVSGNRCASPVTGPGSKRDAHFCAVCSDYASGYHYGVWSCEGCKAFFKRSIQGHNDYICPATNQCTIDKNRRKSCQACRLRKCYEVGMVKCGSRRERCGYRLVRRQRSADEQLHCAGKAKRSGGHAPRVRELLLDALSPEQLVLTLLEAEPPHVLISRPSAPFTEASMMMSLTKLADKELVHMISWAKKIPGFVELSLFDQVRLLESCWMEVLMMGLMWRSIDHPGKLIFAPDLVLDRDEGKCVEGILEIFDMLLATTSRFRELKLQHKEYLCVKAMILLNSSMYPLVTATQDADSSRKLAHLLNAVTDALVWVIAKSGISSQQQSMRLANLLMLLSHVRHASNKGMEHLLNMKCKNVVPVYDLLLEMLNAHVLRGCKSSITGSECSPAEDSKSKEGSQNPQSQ
For assay [5], the target named is T1, Estrogen receptor beta. Put plainly: ERβ–SRC-3 coactivator interaction inhibitors, confirmation, orthogonal assay, biochemical, ELISA, streptavidin-HRP readout (AID 1060). For orientation: An ELISA detects its analyte on a solid surface through an enzyme-linked reagent.
The target in the next assay is Protein Tat (Human immunodeficiency virus type 1 group M subtype B (isolate HXB2)(HIV-1), UniProt P04608). Format: functional.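 Further: tat binding to TAR RNA read out by fluorescence polarization.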
Protein Tat, sequence (P04608 whole entry): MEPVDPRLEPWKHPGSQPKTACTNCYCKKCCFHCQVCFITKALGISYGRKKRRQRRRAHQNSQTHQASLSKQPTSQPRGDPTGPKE
The test system of the next assay is INS1. The experiment in a line: beta cell apoptosis inhibitors, cytokine rescue, dose response, luminescence, retest (AID 449756).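 Further: cell death triggered by IL-1 beta plus TNF-alpha plus IFN-gamma mixture; protective hits raise ATP signal compared with cytokine alone wells.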 Format: functional, cell-based. Particulars: Rattus norvegicus.
Another assay deals with Paired box protein Pax-8 (Homo sapiens, UniProt Q06710). The experiment in a line: inhibitors of PAX8-driven TPO luciferase reporter, dose response, RMG-I cells, cherry-pick (AID 687027).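 Further: luciferase reporter driven by Pax8 target thyroperoxidase promoter measured by SteadyGlo luminescence.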 The assay is classed as functional, cell-based. A general note: Reporter assays use an easily measured gene product as a stand-in for the process of interest.
Paired box protein Pax-8, sequence (Q06710 whole entry): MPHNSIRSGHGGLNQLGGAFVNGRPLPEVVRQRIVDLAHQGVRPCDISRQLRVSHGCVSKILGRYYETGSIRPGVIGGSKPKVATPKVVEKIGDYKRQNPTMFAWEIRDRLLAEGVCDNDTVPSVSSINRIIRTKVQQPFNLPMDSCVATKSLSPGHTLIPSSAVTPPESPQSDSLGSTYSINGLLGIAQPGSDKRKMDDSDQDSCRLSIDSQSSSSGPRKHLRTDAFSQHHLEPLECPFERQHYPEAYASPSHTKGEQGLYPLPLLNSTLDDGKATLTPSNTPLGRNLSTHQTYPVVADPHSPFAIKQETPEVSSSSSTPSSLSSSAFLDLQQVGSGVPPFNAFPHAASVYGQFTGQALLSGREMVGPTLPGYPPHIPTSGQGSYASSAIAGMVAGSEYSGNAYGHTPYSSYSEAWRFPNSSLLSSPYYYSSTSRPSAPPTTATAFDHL
Assay [6] in a line: PAX2 cell-based inhibition, dose response, selectivity assay for PAX8 inhibitor project, plate reader, dry powder samples (AID 743048).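 Further: HEK293 cells carrying a WT1 promoter luciferase reporter driven by expressed Pax2; potency is for inhibition of Pax2 driven reporter signal.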 The assay is classed as functional.
Assay [7] can be described thus: cytotoxicity in COV362 ovarian cancer cells, dose response, cytotoxicity control for PAX8 inhibitor project, cell-based, plate reader, dry powder, SA12 (AID 743144). Format: functional.
The nature of assay [8]: IOSE-T80 ovarian epithelial cell cytotoxicity, dose response, cytotoxicity control for PAX8 inhibitor project, plate reader, dry powder samples (AID 743045). Format: functional, cell-based.
A short description of assay [9]: A2780 ovarian cancer cell cytotoxicity, dose response, cytotoxicity control, plate reader, dry powder samples (AID 743046). The assay is classed as functional, cell-based.
Assay [10] in a line: NIH:OVCAR-3 ovarian cancer cell cytotoxicity, dose response, PAX8 inhibitor project, plate reader, dry powder samples (AID 743044). Format: functional, cell-based.
A short description of assay [11]: PAX5 activity inhibitors, dose response, selectivity assay for PAX8 inhibitor project, cell-based, plate reader, dry powder samples (AID 743047).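 Further: HEK293 cells carrying a Pax5 driven CD19 promoter luciferase reporter; potency of inhibitors that lower reporter luminescence.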 The assay is classed as functional.
A short description of assay [12]: cytotoxicity in OVCAR4 cells, dose response, cytotoxicity control for PAX8 inhibitor project, cell-based, plate reader, dry powder, SA11 (AID 743150). Format: functional. Particulars: OVCAR-4.
Assay [13] can be described thus: cytotoxicity in COV434 cells, dose response, cytotoxicity control for PAX8 inhibitor project, cell-based, plate reader, dry powder, SA7 (AID 743145). The assay is classed as functional.
A short description of assay [14]: cytotoxicity in OV-90 ovarian cancer cells, dose response, PAX8 inhibitor project, cell-based, plate reader, dry powder, SA8 (AID 743149). Format: functional.
Assay [15] is described as follows: non-specific cell cytotoxicity, dose response, cytotoxicity control for PAX8 inhibitor project, plate reader, dry powder samples (AID 743021). The assay is classed as functional, cell-based.
A short description of assay [16]: cytotoxicity dependent on PAX8, dose response, cell-based, plate reader, dry powder (AID 743049). The assay is classed as functional.
The next assay deals with Transthyretin (Homo sapiens, UniProt P02766). The experiment in a line: Luminescence-based cell-based high throughput dose response assay to identify activators of Transthyretin (TTR) transcription. Format: functional.
Assay [17] concerns the target T2, Short transient receptor potential channel 4 (Mus musculus, UniProt Q9QUQ5).
T2 sequence (Q9QUQ5 whole entry): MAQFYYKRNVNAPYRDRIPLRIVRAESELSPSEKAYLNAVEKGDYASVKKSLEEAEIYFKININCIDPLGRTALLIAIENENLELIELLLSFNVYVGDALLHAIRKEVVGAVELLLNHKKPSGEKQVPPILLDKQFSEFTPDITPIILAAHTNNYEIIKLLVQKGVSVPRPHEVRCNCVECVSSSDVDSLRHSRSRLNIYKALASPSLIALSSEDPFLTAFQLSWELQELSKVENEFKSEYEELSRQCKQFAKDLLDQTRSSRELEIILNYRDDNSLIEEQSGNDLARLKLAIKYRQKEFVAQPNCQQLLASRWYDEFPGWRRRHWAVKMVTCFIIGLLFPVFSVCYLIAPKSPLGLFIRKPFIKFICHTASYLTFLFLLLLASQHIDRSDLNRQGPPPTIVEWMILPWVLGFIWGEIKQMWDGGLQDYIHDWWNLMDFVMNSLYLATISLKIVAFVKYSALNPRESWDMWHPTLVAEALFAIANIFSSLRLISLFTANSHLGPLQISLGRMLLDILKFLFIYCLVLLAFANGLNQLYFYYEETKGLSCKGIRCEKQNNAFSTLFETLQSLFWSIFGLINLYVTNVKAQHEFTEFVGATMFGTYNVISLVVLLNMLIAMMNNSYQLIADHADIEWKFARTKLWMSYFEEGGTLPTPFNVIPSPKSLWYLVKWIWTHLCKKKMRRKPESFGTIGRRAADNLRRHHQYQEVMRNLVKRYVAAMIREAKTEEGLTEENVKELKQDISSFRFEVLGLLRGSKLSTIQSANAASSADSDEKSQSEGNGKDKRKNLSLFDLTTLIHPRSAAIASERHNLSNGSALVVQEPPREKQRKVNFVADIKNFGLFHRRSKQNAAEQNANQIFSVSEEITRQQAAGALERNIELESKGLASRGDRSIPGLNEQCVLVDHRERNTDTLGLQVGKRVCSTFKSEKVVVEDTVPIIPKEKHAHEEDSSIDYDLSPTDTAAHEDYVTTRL
The experiment in a line: mouse TRPC4 channel inhibitors, dose response, cell-based, HEK293 TRPC4/mu-opioid, Fluo-4 calcium (AID 434942).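 Further: potency of inhibitors blocking the TRPC4 calcium response.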 Format: functional.

Assay [18] can be described thus: antifungal activity, alamar blue, dry powder, counter-screen for C. neoformans cell wall antifungals, dose response (AID 743128). The assay is classed as functional, organism-based. In general terms: Alamar Blue is a resazurin reagent that responds to reducing activity.
Assay [19] in a line: HEK293T cell cytotoxicity, dose response, cytotoxicity control, plate reader, dry powder, set 10 (AID 743315). The assay is classed as functional, cell-based. The following applies: HEK293.
Another assay addresses Heat shock protein HSP90 (Homo sapiens, UniProt P07900+P08238). Put plainly: tumor Hsp90 inhibitor potency, dose response (AID 712). Format: functional.
The next assay addresses Cytochrome P450 3A4 (Homo sapiens, UniProt P08684).

Cytochrome P450 3A4, sequence (P08684 whole entry): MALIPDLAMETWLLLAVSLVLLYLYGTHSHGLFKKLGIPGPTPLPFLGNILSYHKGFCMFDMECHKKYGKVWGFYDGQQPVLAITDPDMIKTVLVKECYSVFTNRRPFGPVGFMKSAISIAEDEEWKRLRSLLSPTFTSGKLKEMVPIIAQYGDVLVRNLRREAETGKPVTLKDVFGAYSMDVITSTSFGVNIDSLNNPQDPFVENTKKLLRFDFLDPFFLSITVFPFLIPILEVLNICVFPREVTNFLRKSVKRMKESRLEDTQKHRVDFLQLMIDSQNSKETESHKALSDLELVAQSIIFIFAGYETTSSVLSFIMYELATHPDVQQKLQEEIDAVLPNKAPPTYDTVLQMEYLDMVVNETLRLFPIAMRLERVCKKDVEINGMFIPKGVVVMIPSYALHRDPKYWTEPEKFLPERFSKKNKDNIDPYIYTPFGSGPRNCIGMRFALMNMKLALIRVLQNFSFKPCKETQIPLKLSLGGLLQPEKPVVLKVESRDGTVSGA

With `Cc1cc(O)c(C(C)C)cc1Cl` [CHLOROTHYMOL], the IC50 – broadly, the concentration that gives 50% inhibition – is 14.1 µM (inactive) in [1] and 26.5 µM (inactive) in assay [2].

Turning to `Cc1ccc(-c2nc3s/c(=C\c4ccco4)c(=O)n3n2)cc1`, the IC50 in assay [3] was 22.6 µM (active); against Estrogen receptor beta [4] it was > 50 µM (not active); at Estrogen receptor beta [5], > 50 µM (not active); on Protein Tat, > 100 µM (active).

Consider `O=C(Nc1cccc(Cl)c1)Nc1nnc(CSCCOc2ccc(Cl)cc2)s1`, for which the concentration at half-maximal activity (AC50) (as a rule, the midpoint of the concentration-response curve, whichever way the signal moves) with INS1 was 3.05 µM (active); on Paired box protein Pax-8, 5.94 µM (active); in [6], 8.06 µM (active); in assay [7] it was 10.7 µM (active); in assay [8], 14.6 µM (active); in [9], 6.08 µM (active). Besides, the AC50 in assay [10] is 15 µM (active); in assay [11], 4.51 µM (active); in [12], 22.2 µM (active); in [13] it was 12.8 µM (active); in [14], 26.1 µM (active); in assay [15], 16 µM (active). In assay [16], the concentration at half-maximal activity (AC50) is 5.65 µM (active).

In the case of `COc1ccc(-c2cc(C)no2)cc1S(=O)(=O)NCc1cccc(C)c1`, at Transthyretin, the EC50 – broadly, the concentration at which the effect is half-maximal – was > 167 µM (inactive).

For the compound `Cc1ccc(OCCn2c(C)nc3ccccc32)cc1`, the EC50 in assay [17] is 0.944 µM (active). Also, the AC50 in assay [18] is 41.6 µM (active); in assay [19], 40.5 µM (active).

In the case of `CN(c1ccccc1)c1ccc(/C=c2\s/c(=C(/C#N)C(=O)C(C)(C)C)n(Cc3ccco3)c2=O)cc1`, the IC50 against Heat shock protein HSP90 was determined as 13.4314 µM. The half-maximal activity concentration (AC50) at Cytochrome P450 3A4 is 6.31 µM (inconclusive).
